# Test results reported in EPA's ToxRefDB 2.
# How the values were obtained:
# [1] = tested on: rat; conditions: Subchronic oral toxicity in rodents, sprague dawley, Water, dose end: 90 day, group: systemic
# [2] = tested on: dog; conditions: Chronic toxicity, beagle, Oral, Feed, dose end: 52 week, group: systemic
# [3] = tested on: rat; conditions: Subchronic oral toxicity in rodents, other, Feed, dose end: 90 day, group: systemic, systemic / in life observation / food consumption / food consumption
# [4] = tested on: rat; conditions: Multigenerational reproductive toxicity study, CRL:CD BR/VAF/PLUS, Oral, Feed, dose end: 2 generation
# [5] = tested on: dog; conditions: Subchronic oral toxicity in nonrodent, beagle, Capsule, dose end: 90 day, group: systemic, systemic / clinical chemistry / alkaline phosphatase (alp/alk) / alkaline phosphatase (alp/alk) + systemic / pathology microscopic / liver…
# [6] = tested on: rat; conditions: Combined chronic toxicity/carcinogenicity, sprague dawley, Oral, Feed, dose end: 2 year, group: systemic
# [7] = tested on: rabbit; conditions: Prenatal developmental toxicity study, new zealand white, Oral, Gavage/Intubation, dose end: 18 GD
# [8] = tested on: rat; conditions: Subchronic oral toxicity in rodents, sprague dawley, Feed, dose end: 13 week
# [9] = tested on: mouse; conditions: Carcinogenicity, cd1, Oral, Feed, dose end: 99 week, group: systemic
# [10] = tested on: rat; conditions: Multigenerational reproductive toxicity study, sprague dawley, Inhalation, Whole-Body, dose end: 2 generation
# [11] = tested on: rat; conditions: Prenatal developmental toxicity study, sprague dawley, Inhalation, Whole-Body, dose end: 15 GD, group: maternal
# [12] = tested on: mouse; conditions: Carcinogenicity; other; Oral; Feed; dose end: 21 month; group: systemic; systemic / pathology microscopic / liver / hypertrophy
# [13] = tested on: rat; conditions: Combined chronic toxicity/carcinogenicity, wistar, Oral, Feed, dose end: 2 year, group: systemic
# [14] = tested on: mouse; conditions: Combined chronic toxicity/carcinogenicity, Oral, Feed, dose end: 2 year, group: systemic
# [15] = tested on: rat; conditions: Prenatal developmental toxicity study, sprague dawley, Oral, Gavage/Intubation, dose end: 15 GD
# [16] = tested on: dog; conditions: Chronic toxicity, beagle, Oral, Feed, dose end: 24 month, group: systemic
# [17] = tested on: rat; conditions: Prenatal developmental toxicity study, sprague dawley, Oral, Gavage/Intubation, dose end: 15 GD; remark: listed apart in the source
# [18] = tested on: rat; conditions: Multigenerational reproductive toxicity study, other, Oral, Feed, dose end: 2 generation
# [19] = tested on: rat; conditions: Prenatal developmental toxicity study; sprague dawley; Oral; Gavage/Intubation; dose end: 15 GD; group: developmental; developmental / developmental malformation / bone / absent
# [20] = tested on: rabbit; conditions: Prenatal developmental toxicity study, other, Oral, Gavage/Intubation, dose end: 18 GD
# [21] = systemic / clinical chemistry / cholesterol / cholesterol + systemic / in life observation / mortality / mortality + systemic / pathology …
# [22] = systemic / hematology / heinz body / heinz body + systemic / organ weight / prostate / absolute
# [23] = systemic / hematology / heinz body / heinz body + systemic / organ weight / prostate / absolute + systemic / clinical chemistry / alanine …
# [24] = group: offspring, developmental / offspring survival late / lactation index / lactation index + developmental / offspring survival late / [other] / [other] + …
# [25] = group: parental, systemic / in life observation / body weight / body weight gain + systemic / in life observation / food consumption / food consumption
# [26] = group: parental, systemic / in life observation / body weight / body weight gain + systemic / in life observation / food consumption / food consumption + …
# [27] = systemic / pathology microscopic / adrenal gland / vacuolization + systemic / organ weight / thyroid gland / relative to body weight + …
# [28] = group: developmental, developmental / developmental malformation / bone / delayed ossification + developmental / developmental malformation / bone / full …
# [29] = group: maternal, systemic / in life observation / body weight / body weight gain
# [30] = group: maternal, systemic / in life observation / body weight / body weight gain + reproductive / reproductive performance / aborted / aborted + reproductive…
# [31] = group: maternal, reproductive / reproductive performance / estrous cycle / corpora lutea
# [32] = group: systemic, systemic / in life observation / body weight / body weight + systemic / in life observation / food consumption / food consumption + systemic…
# [33] = group: systemic, systemic / organ weight / liver / nos
# [34] = systemic / pathology microscopic / testes / hypertrophy + systemic / pathology microscopic / testes / vacuolization + systemic / pathology …
# [35] = group: offspring, systemic / in life observation / body weight / offspring (pup) weight
# [36] = group: parental, systemic / organ weight / epididymis / absolute + systemic / organ weight / epididymis / relative to body weight + systemic / organ weight…
# [37] = group: reproductive, reproductive / reproductive performance / fertility / fertility + reproductive / reproductive performance / pregnancy / pregnancy + …
# [38] = systemic / in life observation / body weight / body weight gain + systemic / organ weight / spleen / absolute + systemic / organ weight / …
# [39] = systemic / pathology microscopic / thyroid gland / adenoma + systemic / in life observation / body weight / body weight + systemic / organ …
# [40] = systemic / clinical chemistry / alanine aminotransferase (alt/sgpt) / alanine aminotransferase (alt/sgpt) + systemic / clinical chemistry / …
# [41] = systemic / clinical chemistry / urea nitrogen / urea + systemic / clinical chemistry / creatinine / creatinine + systemic / organ weight / …
# [42] = group: developmental, developmental / developmental malformation / bladder / distended + developmental / developmental malformation / bone / supernumerary
# [43] = group: maternal, reproductive / reproductive performance / resorptions / resorptions + systemic / in life observation / body weight / body weight gain
# [44] = group: developmental, developmental / developmental malformation / bone / [other] + developmental / developmental malformation / bone / full supernumerary + …
# [45] = group: maternal, systemic / in life observation / clinical signs / motor activity
# [46] = group: maternal, systemic / in life observation / clinical signs / motor activity + systemic / in life observation / body weight / body weight gain
# [47] = group: offspring, developmental / offspring survival late / lactation index / lactation index + developmental / offspring survival late / viability index / …
# [48] = group: parental, systemic / organ weight / ovary / relative to body weight + systemic / organ weight / ovary / absolute
# [49] = group: reproductive, reproductive / reproductive performance / fertility / fertility
# [50] = group: developmental, developmental / developmental malformation / bone / incomplete ossification + developmental / developmental malformation / bone / misshapen
# [51] = group: developmental, developmental / developmental malformation / bone / incomplete ossification + developmental / developmental malformation / bone / misshapen…
structure (smiles),measurement,setting,value
"CC(Cl)C(Cl)Cl (stereo not given) [1,1,2-Trichloropropane]",LOAEL,[1]; [21],> 50 mg/kg/day
same,NEL,[1]; [21],0.5 mg/kg/day
same,NOAEL,[1]; [21],≥ 50 mg/kg/day
same,LEL,[1]; systemic / in life observation / mortality / mortality,5 mg/kg/day
CC(C)NC(=O)N1CC(=O)N(c2cc(Cl)cc(Cl)c2)C1=O [Iprodione],LEL,[2]; [22],24.9 mg/kg/day
same,LOAEL,[2]; [22],24.9 mg/kg/day
same,NEL,[2]; [23],4.12 mg/kg/day
same,NOAEL,[2]; [23],4.12 mg/kg/day
same,LEL,[3],25 mg/kg/day
same,LOAEL,[3],> 50 mg/kg/day
same,NEL,[3],7.5 mg/kg/day
same,NOAEL,[3],≥ 50 mg/kg/day
same,LEL,[4]; [24],158 mg/kg/day
same,LOAEL,[4]; [24],158 mg/kg/day
same,NEL,[4]; [24],54.7 mg/kg/day
same,NOAEL,[4]; [24],54.7 mg/kg/day
same,LEL,[4]; [25],54.7 mg/kg/day
same,LOAEL,[4]; [25],54.7 mg/kg/day
same,NEL,[4]; [26],16.5 mg/kg/day
same,NOAEL,[4]; [26],16.5 mg/kg/day
same,LEL,[5],180 mg/kg/day
same,LOAEL,[5],180 mg/kg/day
same,NEL,[5],60 mg/kg/day
same,NOAEL,[5],60 mg/kg/day
same,LEL,[6]; [27],6.1 mg/kg/day
same,NEL,[6]; [27],< 6.1 mg/kg/day
same,LOAEL,[6]; systemic / pathology microscopic / liver / hypertrophy + systemic / organ weight / liver / absolute + systemic / organ weight / liver / …,12.4 mg/kg/day
same,NOAEL,[6]; systemic / pathology microscopic / liver / hypertrophy + systemic / pathology microscopic / adrenal gland / rarefaction + systemic / …,6.1 mg/kg/day
same,LEL,[7]; [28],200 mg/kg/day
same,LOAEL,[7]; [28],200 mg/kg/day
same,NEL,[7]; [28],60 mg/kg/day
same,NOAEL,[7]; [28],60 mg/kg/day
same,LEL,[7]; [29],60 mg/kg/day
same,LOAEL,[7]; [29],60 mg/kg/day
same,NEL,[7]; [30],20 mg/kg/day
same,NOAEL,[7]; [30],20 mg/kg/day
same,LEL,[8]; [31],184 mg/kg/day
same,LOAEL,[8]; [31],184 mg/kg/day
same,NEL,[8]; [31],89 mg/kg/day
same,NOAEL,[8]; [31],89 mg/kg/day
same,LOAEL,[8]; [32],151 mg/kg/day
same,NOAEL,[8]; [32],78 mg/kg/day
same,LEL,[8]; [33],89 mg/kg/day
same,NEL,[8]; [33],< 89 mg/kg/day
same,LOAEL,[9]; systemic / pathology microscopic / testes / hypertrophy + systemic / pathology microscopic / testes / vacuolization,115 mg/kg/day
same,LEL,[9]; [34],115 mg/kg/day
same,NEL,[9]; [34],23 mg/kg/day
same,NOAEL,[9]; [34],23 mg/kg/day
O=[N+]([O-])c1ccccc1 [Nitrobenzene],LEL,[10]; [35],40 ppm
same,LOAEL,[10]; [35],> 40 ppm
same,NEL,[10]; [35],10 ppm
same,NOAEL,[10]; [35],≥ 40 ppm
same,LEL,[10]; [36],40 ppm
same,LOAEL,[10]; [36],> 40 ppm
same,NEL,[10]; [36],10 ppm
same,NOAEL,[10]; [36],≥ 40 ppm
same,NEL,"[10]; group: reproductive, reproductive / reproductive performance / fertility / fertility + reproductive / reproductive performance / pregnancy / pregnancy",10 ppm
same,LEL,[10]; [37],40 ppm
same,LOAEL,[10]; [37],> 40 ppm
same,NOAEL,[10]; [37],≥ 40 ppm
same,LOAEL,[11]; [38],> 40 ppm
same,NEL,[11]; [38],1 ppm
same,NOAEL,[11]; [38],≥ 40 ppm
same,LEL,[11]; systemic / organ weight / spleen / absolute + systemic / organ weight / spleen / relative to body weight,10 ppm
CC(C)(C)C(=O)C(Oc1ccc(Cl)cc1)n1cncn1 (stereo not given) [Triadimefon],LEL,[12],19.6 mg/kg/day
same,LOAEL,[12],19.6 mg/kg/day
same,NEL,[12],< 19.6 mg/kg/day
same,NOAEL,[12],< 19.6 mg/kg/day
same,LEL,[13]; systemic / hematology / leukocyte (wbc) count differential / leukocyte (wbc) + systemic / organ weight / liver / nos,22.5 mg/kg/day
same,NEL,[13]; systemic / hematology / leukocyte (wbc) count differential / leukocyte (wbc) + systemic / organ weight / liver / nos + systemic / clinical …,3.6 mg/kg/day
same,LOAEL,[13]; [39],114 mg/kg/day
same,NOAEL,[13]; [39],16.4 mg/kg/day
same,NOAEL,[14]; [40],40 mg/kg/day
same,LOAEL,[14]; systemic / clinical chemistry / alanine aminotransferase (alt/sgpt) / alanine aminotransferase (alt/sgpt) + systemic / in life observation…,240 mg/kg/day
same,LEL,[14]; [41],6.67 mg/kg/day
same,NEL,[14]; [41],< 6.67 mg/kg/day
same,LEL,[15]; [42],90 mg/kg/day
same,LOAEL,[15]; [42],90 mg/kg/day
same,NEL,[15]; [42],30 mg/kg/day
same,NOAEL,[15]; [42],30 mg/kg/day
same,LEL,[15]; [43],90 mg/kg/day
same,LOAEL,[15]; [43],90 mg/kg/day
same,NEL,[15]; [43],30 mg/kg/day
same,NOAEL,[15]; [43],30 mg/kg/day
same,LOAEL,[16]; [40],47 mg/kg/day
same,NOAEL,[16]; [40],11.4 mg/kg/day
same,NEL,[16]; systemic / clinical chemistry / alkaline phosphatase (alp/alk) / alkaline phosphatase (alp/alk) + systemic / clinical chemistry / …,3.03 mg/kg/day
same,LEL,[16]; systemic / pathology microscopic / testes / infiltration cellular / epididymides,11.4 mg/kg/day
same,LOAEL,"[17]; group: developmental, developmental / developmental malformation / bone / [other]",100 mg/kg/day
same,NEL,[17]; [44],25 mg/kg/day
same,NOAEL,[17]; [44],50 mg/kg/day
same,LEL,"[17]; group: developmental, developmental / developmental malformation / bone / full supernumerary",50 mg/kg/day
same,LEL,[17]; [45],25 mg/kg/day
same,LOAEL,[17]; [45],25 mg/kg/day
same,NEL,[17]; [46],10 mg/kg/day
same,NOAEL,[17]; [46],10 mg/kg/day
same,LEL,[18]; [47],90 mg/kg/day
same,LOAEL,[18]; [47],90 mg/kg/day
same,NEL,[18]; [47],2.5 mg/kg/day
same,NOAEL,[18]; [47],2.5 mg/kg/day
same,NOAEL,"[18]; group: parental, systemic / organ weight / ovary / relative to body weight + systemic / in life observation / body weight / body weight + systemic / organ …",2.5 mg/kg/day
same,LOAEL,"[18]; group: parental, systemic / organ weight / ovary / relative to body weight + systemic / organ weight / epididymis / relative to body weight",90 mg/kg/day
same,LEL,[18]; [48],2.5 mg/kg/day
same,NEL,[18]; [48],< 2.5 mg/kg/day
same,LEL,[18]; [49],90 mg/kg/day
same,LOAEL,[18]; [49],90 mg/kg/day
same,NEL,[18]; [49],2.5 mg/kg/day
same,NOAEL,[18]; [49],2.5 mg/kg/day
same,LEL,[19],10 mg/kg/day
same,LOAEL,[19],10 mg/kg/day
same,NEL,[19],5 mg/kg/day
same,NOAEL,[19],5 mg/kg/day
same,LEL,[20]; [50],50 mg/kg/day
same,LOAEL,[20]; [50],50 mg/kg/day
same,NEL,[20]; [51],20 mg/kg/day
same,NOAEL,[20]; [51],20 mg/kg/day
same,LEL,[20]; [29],120 mg/kg/day
same,LOAEL,[20]; [29],120 mg/kg/day
same,NEL,[20]; [29],50 mg/kg/day
same,NOAEL,[20]; [29],50 mg/kg/day
